Read-outs that look alike come from different tables or passages of the source.

Holding throughout (format): biochemical
The test system of assay [1] is RY2 laccase variant L4 (+A458L; F392N, F396I, F460M, D263V, A458L). As to the kind of experiment: Kinetic constants for the oxidation of ABTS and DMP by pure laccase. As for the experimental part:
(§1) Flask production and purification. The S. cerevisiae clones expressing selected laccase variants were grown in duplicate, in 100mL flasks with 30mL expression medium (containing […] and 3% ethanol) (Camarero et al. Applied and Environmental Microbiology 2012, 78,5). […] After 3 days of fermentation, cultures were treated as previously described (De Salas et al. Green Chemistry 2019 21, 5374-5385). Purification of the enzymes by High Pressure Liquid Chromatography (HPLC) was carried out in 3 chromatographic steps: two anion exchange steps using a HiPrep-QFF 16/10 column in a 100mL gradient of 0-40% elution buffer, and a MonoQ-HR 5/5 column in a 30mL gradient of 0-25% elution buffer, followed by size exclusion chromatography with a Superdex75. Fractions containing laccase activity (with 3mM ABTS in 50mM citrate-phosphate pH 3) were pooled, dialyzed in Tris-HCI pH 7 and concentrated after each chromatographic step. Enzyme purification was confirmed by the electrophoretic mobility in SDS-PAGE (12% acrylamide) stained with Coomassie brilliant blue.
(§2) To calculate Km and kcat values the average Vmax was represented versus substrate concentration and fitted to a single rectangular hyperbola function in SigmaPlot (version 14.0) software, where parameter "a" was equal to kcat and parameter "b" was equal to Km.

The subject of assay [2] is RY2 laccase variant L3 (+D263V; F392N, F396I, F460M, D263V). Described as above. As for the experimental part:
as §1, §2

The target of assay [3] is RY2 laccase variant L2 (+F460M; F392N, F396I, F460M) (basidiomycete PM1, UniProt Q12571, F413N/F417I/F481M, form not given). As for the experimental part: as §1, §2
In assay [4] the target is RY2 laccase (parental enzyme, SEQ ID NO: 1) (basidiomycete PM1, UniProt Q12571). The method, then:
as §1, §2

RY2 laccase variant L2 (+F460M; F392N, F396I, F460M), sequence (Q12571 entry or part of it F413N/F417I/F481M, form open): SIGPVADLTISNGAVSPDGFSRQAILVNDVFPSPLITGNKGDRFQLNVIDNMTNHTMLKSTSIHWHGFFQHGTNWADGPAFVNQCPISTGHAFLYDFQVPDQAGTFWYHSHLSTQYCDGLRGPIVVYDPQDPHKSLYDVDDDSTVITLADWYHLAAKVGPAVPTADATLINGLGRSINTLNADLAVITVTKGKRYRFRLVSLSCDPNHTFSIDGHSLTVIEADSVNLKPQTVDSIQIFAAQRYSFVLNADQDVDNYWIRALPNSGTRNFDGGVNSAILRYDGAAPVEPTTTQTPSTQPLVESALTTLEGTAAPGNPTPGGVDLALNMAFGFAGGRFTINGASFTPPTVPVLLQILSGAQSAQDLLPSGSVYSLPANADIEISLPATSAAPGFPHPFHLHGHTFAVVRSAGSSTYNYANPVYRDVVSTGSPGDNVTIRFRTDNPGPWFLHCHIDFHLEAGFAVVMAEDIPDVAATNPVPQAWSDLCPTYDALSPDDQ
RY2 laccase (parental enzyme, SEQ ID NO: 1), sequence (Q12571 entry or part of it): as the sequence (Q12571 entry or part of it F413N/F417I/F481M, form open) above

The Km is the substrate concentration at which the rate is half of its maximum. For orientation: kcat means the maximal rate divided by the concentration of active sites. Turning to `CCn1c(=NN=c2sc3cc(S(=O)(=O)O)ccc3n2CC)sc2cc(S(=O)(=O)O)ccc21` [ABTS], the Michaelis constant (Km) was 680 ± 40 µM in assay [1] (substrate ABTS, pH 3) and 460 ± 40 µM in assay [2] (substrate ABTS, pH 3). Further, the kcat is 136 ± 2.7 s⁻¹ in assay [1] (substrate ABTS, pH 3); 123 ± 5.5 s⁻¹ in assay [2] (substrate ABTS, pH 3); 231 ± 5.6 s⁻¹ in assay [3] (substrate ABTS, pH 3); 543 ± 17 s⁻¹ in assay [4] (substrate ABTS, pH 3).
For the molecule `COc1cccc(OC)c1O` [DMP, 2,6-dimethoxyphenol], the Michaelis-Menten constant (Km) in assay [1] (substrate DMP, pH 8) turned out to be 1710 ± 100 µM; in assay [1] (substrate DMP, pH 9), 430 ± 10 µM; in assay [1] (substrate DMP, pH 10), 22 ± 2 µM; in assay [2] (substrate DMP, pH 8), 1500 ± 120 µM; in assay [2] (substrate DMP, pH 9), 300 ± 30 µM; in assay [2] (substrate DMP, pH 10), 27 ± 1 µM. The turnover number (kcat) in assay [1] (substrate DMP, pH 9) came out at 26 ± 0.28 s⁻¹; in assay [1] (substrate DMP, pH 10), 2 ± 0.05 s⁻¹; in assay [2] (substrate DMP, pH 8), 82.3 ± 7.6 s⁻¹; in assay [2] (substrate DMP, pH 9), 21.7 ± 1.3 s⁻¹; in assay [2] (substrate DMP, pH 10), 0.79 ± 0.03 s⁻¹; in assay [3] (substrate DMP, pH 8), 89 ± 6.2 s⁻¹. The catalytic constant (kcat) in assay [3] (substrate DMP, pH 9) is 9.5 ± 0.1 s⁻¹; in assay [4] (substrate DMP, pH 5) it was 123 ± 6 s⁻¹.
